Measurements: article PMC10999543, “Identification of kinase modulators as host-directed therapeutics against intracellular methicillin-resistant Staphylococcus aureus” (Frontiers in Cellular and Infection Microbiology, 2024)
Read-outs that look alike come from different tables or passages of the source.

How the values were obtained:
[1] = system: HeLa cells; test: Compound screen by flow cytometry: HeLa cell count as surrogate readout of cell viability (z-scoreHeLa); format: cell-based, human; details: for cell count rep 1 / z-scoreHeLa rep 1: replicate 1; for cell count rep 2 / z-scoreHeLa rep 2: replicate 2; for cell count rep 3 / z-scoreHeLa rep 3: replicate 3; for z-scoreHeLa mean: mean of 3 replicates
In short: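 HeLa cells were infected with GFP-MRSA (mean MOI 6.8 ± 4.6) for 1 h, and extracellular bacteria were killed with 30 µg/ml gentamicin. Cells were then incubated overnight with kinase inhibitors in 5 µg/ml gentamicin, in triplicate against DMSO controls. Flow-cytometric cell count served as a viability surrogate, expressed as a plate z-score.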

[2] = system: intracellular MRSA; format: cell-based, Staphylococcus aureus; details: for %GFP+ rep 1 / z-scoreMRSA+ rep 1: replicate 1; for %GFP+ rep 2 / z-scoreMRSA+ rep 2: replicate 2; for %GFP+ rep 3 / z-scoreMRSA+ rep 3: replicate 3; for z-scoreMRSA+ mean: mean of 3 replicates
In short: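 HeLa, MRSA-GFP at MOI ~6.8, 1 h infection; gentamicin 30 µg/ml for 15 min; inhibitor plus gentamicin 5 µg/ml overnight, 37°C/5% CO2; triplicate plates; FACS %GFP+ and cell count; hit = z ≤ -2 MRSA+, z ≥ -3 count.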

[3] = PKIS compound screen raw data, HeLa cell count
[4] = PKIS compound screen, HeLa cell count
[5] = PKIS compound screen, Yes/No call on z-scoreHeLa
[6] = PKIS compound screen raw data, MRSA-infected HeLa cells
[7] = PKIS compound screen, MRSA-infected HeLa cells
[8] = PKIS compound screen, Yes/No call (effect without cell death)
[9] = PKIS compound screen, Yes/No call on z-scoreMRSA+
[10] = PKIS compound screen, Yes/No call
[11] = PKIS compounds raw data, HeLa cell count
[12] = PKIS compounds raw data, MRSA-infected HeLa cells
[13] = compound screen, HeLa cell count
[14] = Yes/No: effect without cell death
[15] = compound screen, MRSA-infected HeLa cells

| Structure (SMILES) | cell count rep 1 [1, 3] | cell count rep 2 [1, 3] | cell count rep 3 [1, 3] | z-scoreHeLa mean [1, 4] | z-scoreHeLa rep 1 [1, 4] | z-scoreHeLa rep 2 [1, 4] | z-scoreHeLa rep 3 [1, 4] | cell death [1, 5] | %GFP+ rep 1 [2, 6] [%] | %GFP+ rep 2 [2, 6] [%] | %GFP+ rep 3 [2, 6] [%] | z-scoreMRSA+ mean [2, 7] | z-scoreMRSA+ rep 1 [2, 7] | hit [2, 8] | cell count rep 1 [1, 11] | cell count rep 2 [1, 11] | cell count rep 3 [1, 11] | %GFP+ rep 1 [2, 12] [%] | %GFP+ rep 2 [2, 12] [%] | %GFP+ rep 3 [2, 12] [%] | also measured |
| --- | --- | --- | --- | --- | --- | --- | --- | --- | --- | --- | --- | --- | --- | --- | --- | --- | --- | --- | --- | --- | --- |
| CCOc1ccc2c(-c3ccnc(Nc4cccc(C(F)(F)F)c4)n3)cnn2n1 [GW811761X] | 25545 | 40447 | 52915 | 1.28 | 0.82 | 1.06 | 1.97 | No | 16.8 | 16.8 | 18.1 | -0.46 | -0.34 | No | – | – | – | – | – | – | z-scoreMRSA+ rep 2 [2, 7]: -0.52; z-scoreMRSA+ rep 3 [2, 7]: -0.51; effect [2, 9]: No |
| O=C(c1ccc(-c2cc(-c3c[nH]nc3-c3ccccn3)ccn2)cc1)N1CCOCC1 [GW812171X] | – | – | – | – | – | – | – | – | – | – | – | – | – | No | 9409 | 7175 | 6822 | 25.0 | 25.6 | 27.6 | cell death [1, 10]: No; z-scoreHeLa mean ([1]; PKIS compound screen): 1.19; z-scoreHeLa rep 1 ([1]; PKIS compound screen): 2.02; z-scoreHeLa rep 2 ([1]; PKIS compound screen): 0.77; z-scoreHeLa rep 3 ([1]; PKIS compound screen): 0.78; effect [2, 10]: No; z-scoreMRSA+ mean ([2]; PKIS compound screen): -0.14; z-scoreMRSA+ rep 1 ([2]; PKIS compound screen): -0.40; z-scoreMRSA+ rep 2 ([2]; PKIS compound screen): -0.08; z-scoreMRSA+ rep 3 ([2]; PKIS compound screen): 0.06 |
| Nc1ncc(-c2cccc(S(N)(=O)=O)c2)c2scc(-c3ccc(F)c(Cl)c3)c12 [GW856804X] | – | – | – | – | – | – | – | – | – | – | – | – | – | – | 4238 | 7246 | 7870 | 11.3 | 12.3 | 12.2 | cell death ([1]; Yes/No call from z-scoreHeLa): No; z-scoreHeLa mean [1, 13]: 0.73; z-scoreHeLa rep 1 [1, 13]: -0.49; z-scoreHeLa rep 2 [1, 13]: 2.25; z-scoreHeLa rep 3 [1, 13]: 0.43; effect ([2]; Yes/No call from z-scoreMRSA+): No; hit [2, 14]: No; z-scoreMRSA+ mean [2, 15]: -0.70; z-scoreMRSA+ rep 1 [2, 15]: -0.60; z-scoreMRSA+ rep 2 [2, 15]: -0.40; z-scoreMRSA+ rep 3 [2, 15]: -1.09 |
| O=c1cc(N2CCOCC2)nc2n(Cc3cccc4ccccc34)ccn12 [GSK2333389A] | 20901 | 33281 | 38349 | -0.17 | 0.12 | -0.28 | -0.35 | No | 11.3 | 12.1 | 12.6 | -2.07 | -2.08 | Yes | – | – | – | – | – | – | z-scoreMRSA+ rep 2 [2, 7]: -1.93; z-scoreMRSA+ rep 3 [2, 7]: -2.19; effect [2, 9]: Yes |
| COc1ccc(-c2oc3ncnc(N)c3c2-c2ccc(NC(=O)Nc3cc(C(F)(F)F)ccc3F)cc2)cc1 [GW768505A] | – | – | – | – | – | – | – | – | – | – | – | – | – | – | 2576 | 4064 | 5860 | 11.3 | 13.4 | 12.4 | cell death ([1]; Yes/No call from z-scoreHeLa): No; z-scoreHeLa mean [1, 13]: -0.89; z-scoreHeLa rep 1 [1, 13]: -1.99; z-scoreHeLa rep 2 [1, 13]: -0.15; z-scoreHeLa rep 3 [1, 13]: -0.53; effect ([2]; Yes/No call from z-scoreMRSA+): No; hit [2, 14]: No; z-scoreMRSA+ mean [2, 15]: -0.55; z-scoreMRSA+ rep 1 [2, 15]: -0.60; z-scoreMRSA+ rep 2 [2, 15]: -0.0319; z-scoreMRSA+ rep 3 [2, 15]: -1.03 |
| Cc1ccc2c(c1)C(=NNc1ccc(S(N)(=O)=O)cc1)C(=O)N2 [GW275944X] | – | – | – | – | – | – | – | – | – | – | – | – | – | – | 3417 | 4418 | 6627 | 14.2 | 14.3 | 12.8 | cell death ([1]; Yes/No call from z-scoreHeLa): No; z-scoreHeLa mean [1, 13]: -0.43; z-scoreHeLa rep 1 [1, 13]: -1.23; z-scoreHeLa rep 2 [1, 13]: 0.11; z-scoreHeLa rep 3 [1, 13]: -0.16; effect ([2]; Yes/No call from z-scoreMRSA+): No; hit [2, 14]: No; z-scoreMRSA+ mean [2, 15]: -0.10; z-scoreMRSA+ rep 1 [2, 15]: 0.33; z-scoreMRSA+ rep 2 [2, 15]: 0.27; z-scoreMRSA+ rep 3 [2, 15]: -0.91 |
| O=C(Nc1ccccc1F)NC1CCN(c2ccnc(Nc3ccc(F)cc3)n2)C1 (stereo not drawn) [GSK1379722A] | 32994 | 39130 | 43503 | 1.08 | 1.95 | 0.81 | 0.47 | No | 20.2 | 23.8 | 25.6 | 1.37 | 0.74 | No | 7997 | 6922 | 7324 | 32.4 | 32.7 | 32.7 | cell death [1, 10]: No; z-scoreHeLa mean ([1]; PKIS compound screen): 0.96; z-scoreHeLa rep 1 ([1]; PKIS compound screen): 1.17; z-scoreHeLa rep 2 ([1]; PKIS compound screen): 0.61; z-scoreHeLa rep 3 ([1]; PKIS compound screen): 1.09; z-scoreMRSA+ rep 2 [2, 7]: 1.59; z-scoreMRSA+ rep 3 [2, 7]: 1.77; effect [2, 10]: No; effect [2, 9]: No; z-scoreMRSA+ mean ([2]; PKIS compound screen): 1.11; z-scoreMRSA+ rep 1 ([2]; PKIS compound screen): 1.04; z-scoreMRSA+ rep 2 ([2]; PKIS compound screen): 1.28; z-scoreMRSA+ rep 3 ([2]; PKIS compound screen): 1.01 |
| Cc1cc(-c2ccc3c(c2)CC[C@@H](N[C@@H](C)c2ccccc2)C3)cnc1N [GW412617A] | 42421 | 41709 | 47670 | 1.94 | 3.38 | 1.29 | 1.14 | No | 20.0 | 21.4 | 20.6 | 0.60 | 0.68 | No | – | – | – | – | – | – | z-scoreMRSA+ rep 2 [2, 7]: 0.86; z-scoreMRSA+ rep 3 [2, 7]: 0.25; effect [2, 9]: No |
| Cc1cn2c(=O)cc(N3CCOCC3)nc2n1Cc1cccc(Cl)c1Cl [GSK2334006A] | 38408 | 33023 | 28416 | 1.52 | 1.39 | 1.33 | 1.85 | No | 10.9 | 13.1 | 15.5 | -1.80 | -2.11 | No | 5750 | 5179 | 5208 | 23.2 | 20.8 | 27.2 | cell death [1, 10]: No; z-scoreHeLa mean ([1]; PKIS compound screen): -0.32; z-scoreHeLa rep 1 ([1]; PKIS compound screen): -0.18; z-scoreHeLa rep 2 ([1]; PKIS compound screen): -0.55; z-scoreHeLa rep 3 ([1]; PKIS compound screen): -0.25; z-scoreMRSA+ rep 2 [2, 7]: -1.72; z-scoreMRSA+ rep 3 [2, 7]: -1.57; effect [2, 10]: No; effect [2, 9]: No; z-scoreMRSA+ mean ([2]; PKIS compound screen): -0.59; z-scoreMRSA+ rep 1 ([2]; PKIS compound screen): -0.75; z-scoreMRSA+ rep 2 ([2]; PKIS compound screen): -1.01; z-scoreMRSA+ rep 3 ([2]; PKIS compound screen): -0.0127 |
| Fc1cccc(COc2ccc(Nc3ncnc4sc(-c5ccc[nH]5)cc34)cc2Cl)c1 [GW707818B] | – | – | – | – | – | – | – | – | – | – | – | – | – | – | 5915 | 6344 | 7651 | 24.9 | 22.3 | 25.1 | cell death ([1]; Yes/No call from z-scoreHeLa): No; z-scoreHeLa mean [1, 13]: 1.41; z-scoreHeLa rep 1 [1, 13]: 1.13; z-scoreHeLa rep 2 [1, 13]: 1.57; z-scoreHeLa rep 3 [1, 13]: 1.52; effect ([2]; Yes/No call from z-scoreMRSA+): No; hit [2, 14]: No; z-scoreMRSA+ mean [2, 15]: 0.24; z-scoreMRSA+ rep 1 [2, 15]: -0.09; z-scoreMRSA+ rep 2 [2, 15]: -0.0758; z-scoreMRSA+ rep 3 [2, 15]: 0.87 |
| CC(C)c1ccc2c(c1)NC(=O)C2=NNc1ccc(S(N)(=O)=O)cc1 [GW300653X] | – | – | – | – | – | – | – | – | – | – | – | – | – | – | 3693 | 3535 | 5783 | 12.5 | 13.7 | 13.3 | cell death ([1]; Yes/No call from z-scoreHeLa): No; z-scoreHeLa mean [1, 13]: -0.70; z-scoreHeLa rep 1 [1, 13]: -0.98; z-scoreHeLa rep 2 [1, 13]: -0.55; z-scoreHeLa rep 3 [1, 13]: -0.56; effect ([2]; Yes/No call from z-scoreMRSA+): No; hit [2, 14]: No; z-scoreMRSA+ mean [2, 15]: -0.30; z-scoreMRSA+ rep 1 [2, 15]: -0.21; z-scoreMRSA+ rep 2 [2, 15]: 0.07; z-scoreMRSA+ rep 3 [2, 15]: -0.77 |
